We go through 14 compounds from patent US8975417B2, “Pyrazolopyrrolidine derivatives and their use in the treatment of disease” (Novartis AG, priority 2013, dated 2015).

One assay concerns the target His-Brd2(60-472) (Homo sapiens (Human), UniProt P25440). Briefly: TR-FRET in-vitro binding assay for BRD2. The settings on record: biochemical. An outline of the steps:
(§1)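 Bromodomain protein (45 nM in its addition solution) and tetra-acetylated histone H4 peptide (AcK5/8/12/16; 60 nM in its addition solution) were incubated with compounds for 35 min at 30 °C in 50 mM HEPES pH 7.5, 50 mM NaCl, 0.005% Tween20, 0.1% BSA. Eu-anti-His6 plus streptavidin-allophycocyanin detection followed, with TR-FRET read-out.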

For the next assay, the system named is MV-4-11 cells. In words: Cell growth inhibition assay (CellTiter-Glo), MV-4-11. It counts as cell-based. The settings on record: Homo sapiens, MV4-11, read-out: MV-4-11 TGI. An outline of the steps: (§2)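 Luminescent ATP quantification served as the viability read-out following incubation at 37° C. under 5% CO2. A day-0 reference plate allowed scaling from −100% (medium) to 100% (0.1% DMSO vehicle), with IC50 and TGI fitted by a four-parameter model.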

The target in a further assay is His-Brd4(44-477) (Homo sapiens (Human), UniProt O60885). Briefly: TR-FRET in-vitro binding assay for BRD4. The settings on record: biochemical. An outline of the steps: as §1
Assay [1] has as its target His-CREBBP (1081-1197) bromodomain (Homo sapiens (Human), UniProt Q92793). In words: AlphaScreen in-vitro binding assay for CREBBP. Particulars: biochemical. An outline of the steps:
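Ni-chelate acceptor and streptavidin donor beads (45 µg/mL each, in 50 mM HEPES pH 7.5, 150 mM NaCl, 0.02% BSA) were then added for 60 min at room temperature. IC50 came from 8-point non-linear regression.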

For a further assay, the system named is K-562 cells. In words: Cell growth inhibition assay (CellTiter-Glo), K-562. The assay is classed as cell-based, human. The settings on record: Homo sapiens, K562, read-out: K-562 TGI. An outline of the steps:
as §2

In a further assay the test system is THP-1 cells. In words: Cell growth inhibition assay (CellTiter-Glo), THP-1. The assay is classed as cell-based. The settings on record: Homo sapiens, read-out: THP-1 TGI. An outline of the steps: as §2
In a further assay the target is His-Brd3(20-477) (Homo sapiens (Human), UniProt Q15059). Briefly: TR-FRET in-vitro binding assay for BRD3. Particulars: biochemical. The procedure, abridged: as §1
Chain of His-Brd3(20-477) (Q15059 20-477): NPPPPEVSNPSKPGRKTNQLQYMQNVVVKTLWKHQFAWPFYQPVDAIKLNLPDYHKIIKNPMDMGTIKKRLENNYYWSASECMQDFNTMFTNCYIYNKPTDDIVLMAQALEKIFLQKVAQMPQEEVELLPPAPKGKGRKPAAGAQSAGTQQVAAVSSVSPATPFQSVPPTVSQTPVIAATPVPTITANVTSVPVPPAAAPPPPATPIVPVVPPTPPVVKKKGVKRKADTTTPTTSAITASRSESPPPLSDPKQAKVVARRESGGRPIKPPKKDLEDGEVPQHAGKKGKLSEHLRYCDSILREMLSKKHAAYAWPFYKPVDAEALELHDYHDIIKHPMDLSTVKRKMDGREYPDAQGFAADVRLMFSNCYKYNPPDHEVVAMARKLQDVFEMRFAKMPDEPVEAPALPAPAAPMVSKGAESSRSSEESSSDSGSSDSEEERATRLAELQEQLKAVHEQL

Chain of His-Brd2(60-472) (P25440 60-472): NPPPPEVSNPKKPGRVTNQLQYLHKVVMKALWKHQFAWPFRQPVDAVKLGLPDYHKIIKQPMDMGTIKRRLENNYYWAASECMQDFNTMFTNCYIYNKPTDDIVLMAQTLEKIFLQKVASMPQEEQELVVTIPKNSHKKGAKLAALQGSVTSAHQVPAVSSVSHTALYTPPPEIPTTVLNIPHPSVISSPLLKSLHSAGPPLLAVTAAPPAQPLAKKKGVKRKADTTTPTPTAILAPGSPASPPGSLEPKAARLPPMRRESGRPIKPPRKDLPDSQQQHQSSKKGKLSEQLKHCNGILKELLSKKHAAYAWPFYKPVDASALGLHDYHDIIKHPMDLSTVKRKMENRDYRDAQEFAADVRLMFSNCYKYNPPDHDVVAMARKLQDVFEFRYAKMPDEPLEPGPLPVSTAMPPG
Chain of His-CREBBP (1081-1197) bromodomain (Q92793 1081-1197): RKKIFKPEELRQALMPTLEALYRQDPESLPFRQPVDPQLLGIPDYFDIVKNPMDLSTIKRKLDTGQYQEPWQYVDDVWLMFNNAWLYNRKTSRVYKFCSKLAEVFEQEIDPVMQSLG

As to `Cc1nn(C(C)C)c2c1C(c1ccc(Cl)cc1F)N(c1cc(C)c3nnc(C)n3c1)C2=O` (centres unmarked) [Example 168, 4-(4-chloro-2-fluorophenyl)-5-(3,8-dimethyl-[1,2,4]triazolo[4,3-a]pyridin-6-yl)-1-isopropyl-3-methyl-4,5-dihydropyrrolo[3,4-c]pyrazol-6(1H)-one], the IC50 was determined as 71 nM on His-Brd2(60-472), 59 nM at His-Brd4(44-477), 11000 nM in assay [1] and 30 nM on His-Brd3(20-477). Besides, the results for the IC (total growth inhibition) in the assay on MV-4-11 cells, with K-562 cells and in the assay on THP-1 cells were 0.0403 µM, greater than 10 µM and 0.0949 µM, respectively.
Consider `CCn1nc(C)c2c1C(=O)N(c1cc(C)c(=O)n(C)c1)C2c1ccc(Cl)cc1F` (centres unmarked) [Example 170, 4-(4-chloro-2-fluorophenyl)-5-(1,5-dimethyl-6-oxo-1,6-dihydropyridin-3-yl)-1-ethyl-3-methyl-4,5-dihydropyrrolo[3,4-c]pyrazol-6(1H)-one], for which the IC50 on His-Brd2(60-472) turned out to be 16 nM; on His-Brd4(44-477) it was 15 nM; in assay [1], 630 nM; at His-Brd3(20-477), 13 nM. The IC (total growth inhibition) with MV-4-11 cells was 0.0159 µM; with K-562 cells, greater than 10 µM; with THP-1 cells, 0.0331 µM.
`CCn1nc2c(c1C)C(c1ccc(Cl)cc1F)N(c1cc(C)c(=O)n(C)c1)C2=O` (centres unmarked) [Example 171, 4-(4-chloro-2-fluorophenyl)-5-(1,5-dimethyl-6-oxo-1,6-dihydropyridin-3-yl)-2-ethyl-3-methyl-4,5-dihydropyrrolo[3,4-c]pyrazol-6(2H)-one]: the IC50 at His-Brd2(60-472) was 140 nM; at His-Brd4(44-477), 140 nM; in assay [1], 1500 nM; on His-Brd3(20-477), 93 nM. In addition, the IC (total growth inhibition) was 0.174 µM in the assay on MV-4-11 cells, greater than 10 µM in the assay with K-562 cells and 0.297 µM with THP-1 cells.
Regarding `Cc1n[nH]c2c1C(c1ccc(F)cc1F)N(c1cc(C)c3nnc(C)n3c1)C2=O` (centres unmarked) [Example 172, 4-(2,4-difluorophenyl)-5-(3,8-dimethyl-[1,2,4]triazolo[4,3-a]pyridin-6-yl)-3-methyl-4,5-dihydropyrrolo[3,4-c]pyrazol-6(2H)-one], the IC50 on His-Brd2(60-472) was 220 nM; on His-Brd4(44-477), 97 nM; in assay [1] it was greater than 37000 nM; on His-Brd3(20-477), 110 nM. Besides, the IC (total growth inhibition) is 0.323 µM in the assay with MV-4-11 cells, greater than 10 µM in the assay with K-562 cells and 0.782 µM in the assay on THP-1 cells.
Consider `COc1ncccc1-n1nc(C)c2c1C(=O)N(c1cc(C)c3nnc(C)n3c1)C2c1ccc(F)cc1F` (centres unmarked) [Example 173, 4-(2,4-difluorophenyl)-5-(3,8-dimethyl-[1,2,4]triazolo[4,3-a]pyridin-6-yl)-1-(2-methoxypyridin-3-yl)-3-methyl-4,5-dihydropyrrolo[3,4-c]pyrazol-6(1H)-one], for which the IC50 is 79 nM at His-Brd2(60-472), 58 nM on His-Brd4(44-477), greater than 37000 nM in assay [1] and 87 nM on His-Brd3(20-477). Further, the IC (total growth inhibition) was 0.139 µM in the assay on MV-4-11 cells, greater than 10 µM in the assay on K-562 cells and 0.282 µM in the assay with THP-1 cells.
For the compound `Cc1nn(C(C)C)c2c1C(c1ccc(F)cc1F)N(c1cc(C)c3nnc(C)n3c1)C2=O` (centres unmarked) [Example 174, 4-(2,4-difluorophenyl)-5-(3,8-dimethyl-[1,2,4]triazolo[4,3-a]pyridin-6-yl)-1-isopropyl-3-methyl-4,5-dihydropyrrolo[3,4-c]pyrazol-6(1H)-one], the IC50 on His-Brd2(60-472) came out at 110 nM; at His-Brd4(44-477) it was 52 nM; in assay [1], 12000 nM; at His-Brd3(20-477), 72 nM. In addition, the IC (total growth inhibition) is 0.0588 µM in the assay on MV-4-11 cells, greater than 10 µM in the assay on K-562 cells and 0.105 µM with THP-1 cells.
Take `Cc1cc(N2C(=O)c3nn(C(C)C)c(C)c3C2c2ccc(F)cc2F)cn2c(C)nnc12` (centres unmarked) [Example 175, 4-(2,4-difluorophenyl)-5-(3,8-dimethyl-[1,2,4]triazolo[4,3-a]pyridin-6-yl)-2-isopropyl-3-methyl-4,5-dihydropyrrolo[3,4-c]pyrazol-6(2H)-one]: the IC50 on His-Brd2(60-472) turned out to be 72 nM; on His-Brd4(44-477) it was 34 nM; in assay [1], 13000 nM; on His-Brd3(20-477) it was 37 nM. Moreover, the IC (total growth inhibition) in the assay with MV-4-11 cells is 0.0867 µM; in the assay on K-562 cells, greater than 10 µM; in the assay with THP-1 cells, 0.131 µM.
As for `Cc1nn(C2CC2)c2c1C(c1ccc(F)cc1F)N(c1cc(C)c3nnc(C)n3c1)C2=O` (centres unmarked) [Example 176, 1-cyclopropyl-4-(2,4-difluorophenyl)-5-(3,8-dimethyl-[1,2,4]triazolo[4,3-a]pyridin-6-yl)-3-methyl-4,5-dihydropyrrolo[3,4-c]pyrazol-6(1H)-one], the IC50 on His-Brd2(60-472) is 120 nM; at His-Brd4(44-477), 100 nM; in assay [1], greater than 37000 nM; on His-Brd3(20-477) it was 90 nM. Also, the IC (total growth inhibition) in the assay on MV-4-11 cells was 0.0631 µM; in the assay with K-562 cells, greater than 10 µM; with THP-1 cells, 0.106 µM.
On to `Cc1nn(C2CC2)c2c1C(c1ccc(Cl)cc1F)N(c1cc(C)c3nnc(C)n3c1)C2=O` (centres unmarked) [Example 178, 4-(4-chloro-2-fluorophenyl)-1-cyclopropyl-5-(3,8-dimethyl-[1,2,4]triazolo[4,3-a]pyridin-6-yl)-3-methyl-4,5-dihydropyrrolo[3,4-c]pyrazol-6(1H)-one], for which the IC50 worked out at 68 nM at His-Brd2(60-472), 66 nM on His-Brd4(44-477), 32000 nM in assay [1] and 62 nM on His-Brd3(20-477). The IC (total growth inhibition) in the assay with MV-4-11 cells is 0.0491 µM; in the assay with K-562 cells, greater than 10 µM; in the assay with THP-1 cells it was 0.107 µM.
Take `Cc1nn(C2CC2)c2c1C(c1ccc(Cl)cc1F)N(c1cc(C)c(=O)n(C)c1)C2=O` (centres unmarked) [Example 179, 4-(4-chloro-2-fluorophenyl)-1-cyclopropyl-5-(1,5-dimethyl-6-oxo-1,6-dihydropyridin-3-yl)-3-methyl-4,5-dihydropyrrolo[3,4-c]pyrazol-6(1H)-one]: the IC50 at His-Brd2(60-472) was determined as 92 nM; on His-Brd4(44-477), 95 nM; in assay [1] it was 3900 nM; at His-Brd3(20-477) it was 90 nM. The IC (total growth inhibition) is 0.12 µM in the assay with MV-4-11 cells, greater than 10 µM in the assay with K-562 cells and 0.272 µM with THP-1 cells.
In the case of `Cc1nn(C(C)C)c2c1C(c1ccc(Cl)cc1F)N(c1cc(C)c(=O)n(C)c1)C2=O` (centres unmarked) [Example 180, 4-(4-chloro-2-fluorophenyl)-5-(1,5-dimethyl-6-oxo-1,6-dihydropyridin-3-yl)-1-isopropyl-3-methyl-4,5-dihydropyrrolo[3,4-c]pyrazol-6(1H)-one], the IC50 stood at 89 nM on His-Brd2(60-472), 83 nM on His-Brd4(44-477), 2400 nM in assay [1] and 71 nM at His-Brd3(20-477). For the same compound, the IC (total growth inhibition) in the assay on MV-4-11 cells was 0.108 µM; with K-562 cells, greater than 10 µM; in the assay on THP-1 cells, 0.186 µM.
Take `CCn1nc(C)c2c1C(=O)N(c1cc(C)c3nnc(C)n3c1)C2c1ccc(F)cc1F` (centres unmarked) [Example 181, 4-(2,4-difluorophenyl)-5-(3,8-dimethyl-[1,2,4]triazolo[4,3-a]pyridin-6-yl)-1-ethyl-3-methyl-4,5-dihydropyrrolo[3,4-c]pyrazol-6(1H)-one]: the IC50 at His-Brd2(60-472) is 62 nM; at His-Brd4(44-477) it was 34 nM; in assay [1] it was greater than 37000 nM; on His-Brd3(20-477) it was 40 nM. Further, the IC (total growth inhibition) in the assay with MV-4-11 cells is 0.0886 µM; in the assay with K-562 cells, greater than 10 µM; in the assay with THP-1 cells it was 0.117 µM.
For the compound `CCn1nc2c(c1C)C(c1ccc(F)cc1F)N(c1cc(C)c3nnc(C)n3c1)C2=O` (centres unmarked) [Example 182, 4-(2,4-difluorophenyl)-5-(3,8-dimethyl-[1,2,4]triazolo[4,3-a]pyridin-6-yl)-2-ethyl-3-methyl-4,5-dihydropyrrolo[3,4-c]pyrazol-6(2H)-one], the IC50 was determined as 120 nM on His-Brd2(60-472), 46 nM at His-Brd4(44-477), 27000 nM in assay [1] and 51 nM on His-Brd3(20-477). Further, the IC (total growth inhibition) in the assay on MV-4-11 cells was 0.12 µM; in the assay on K-562 cells, greater than 10 µM; in the assay with THP-1 cells it was 0.217 µM.
Regarding `COc1ncccc1-n1nc(C)c2c1C(=O)N(c1cc(C)c3nnc(C)n3c1)C2c1ccc(Cl)cc1F` (centres unmarked) [Example 184, 4-(4-chloro-2-fluorophenyl)-5-(3,8-dimethyl-[1,2,4]triazolo[4,3-a]pyridin-6-yl)-1-(2-methoxypyridin-3-yl)-3-methyl-4,5-dihydropyrrolo[3,4-c]pyrazol-6(1H)-one], the IC50 is 47 nM at His-Brd2(60-472), 29 nM on His-Brd4(44-477), 24000 nM in assay [1] and 36 nM on His-Brd3(20-477). The results for the IC (total growth inhibition) with MV-4-11 cells, with K-562 cells and in the assay with THP-1 cells were 0.136 µM, greater than 10 µM and 0.337 µM, respectively.
